d = 2'-deoxy (DNA); r = 2'-OH (RNA)

This is an account of results in patent US20060171935A1, “Protecting cell therapy for neurological disorders including Parkinson's disease” (priority 2005, published 2006).

For data set [1], the target named is T1, αSyn (Homo sapiens, UniProt P37840). In words: αSyn Congo red-positive fibril formation in vitro. The data set is classed as biochemical. To be noted: 200 μM αSyn, proteins 100 μM, 1 wk at 37° C.
Method: αSyn protofibril and fibril formation assays were performed essentially as described (Uversky et al.). […] For fibril formation, αSyn and chaperone proteins (as described above) were incubated with shaking for 1 wk at 37° C. Fibril formation was assessed by Congo red (Conway et al. 2000b).
Data set [2] concerns the target T1, αSyn. Put plainly: αSyn protofibril formation in vitro. The format is biochemical. The conditions noted are these: molar ratio 1:2 (DJ-1: αSyn), 2 h at 55° C.
The subject of data set [3] is primary culture midbrain dopamine neurons. In words: Parkin siRNA in primary midbrain dopamine neuron cultures. The format is cell-based, mice. How it is done: (§1) Cerebellar granule neurons from P6 mice were purified and transfected essentially as described (Scheiffele et al., Neuroligin expressed in nonneuronal cells triggers presynaptic development in contacting axons. Cell, 101:657-69, 2000). Dissociated cortical neurons from E16.5 mice were prepared and cultured as described (Scheiffele et al., Neuroligin expressed in nonneuronal cells triggers presynaptic development in contacting axons. Cell, 101:657-69, 2000). Primary midbrain cultures were prepared from E13.5 mouse embryos, as described (Hynes et al., Induction of midbrain dopaminergic neurons by Sonic hedgehog. Neuron, 15:35-44, 1995). Cells were treated for 24 h with or without kainate (250 or 500 μM as indicated; Sigma) or MPP^+ (1 or 10 μM as indicated; Sigma), stained for 20 min with 0.5 μg/ml Hoechst 33342 (Sigma), and visualized by fluorescence microscopy. For granule cell assays, at least 100 cells in two 20× fields were scored in duplicate for GFP and/or Hoechst signal. For immunohistochemistry, cell cultures were washed twice with PBS, and fixed for 20 min with 4% (w/v) paraformaldehyde. Cells were blocked for 1 h, at room temperature, with 3% (v/v) goat serum in PBS, and then incubated overnight, at 4° C., with specific antibodies, as indicated. Cells were washed, incubated for 1 h at room temperature with appropriately-labeled secondary antibodies, and visualized by fluorescence microscopy. For midbrain culture experiments, DAT-specific immunoreactivity (pixels), and cytoplasmic parkin and cyclin E immunoreactivity (mean pixel density), were quantified in triplicate, across nine fields of view, at 20× using Image software (Scion).
SiRNAs were synthesized by Dharmacon Research, Inc., and duplexes were formed as per the manufacturer's instructions (parkin siRNA sequence: 5′ […] […]dTdT 3′; DAT siRNA sequence: 5′ […]dTdT 3′; SERT siRNA sequence: 5′[…]dTdT 3′). Cortical cultures were transfected using Lipofectamine 2000 reagent (Life Technologies); primary midbrain cultures were transfected using Transmessenger (Qiagen), as described (Krichevsky and Kosik, RNAi functions in cultured mammalian neurons. Proc. Natl. Acad. Sci. USA, 99:11926-929, 2002).
Embryonic day 13.5 (E13.5) primary culture midbrain dopamine neurons, identified by immunohistochemical staining for the dopamine transporter (DAT) (Nirenberg et al., The dopamine transporter is localized to dendritic and axonal plasma membranes of nigrostriatal dopaminergic neurons. J. Neurosci., 16:436-47, 1996), were transfected with parkin siRNA (FIG. 7, panels F-J and P-T) or control siRNA (FIG. 7, panels A-E and K-O), and subsequently exposed to kainate, as above.

Data set [4] has as its system primary cortical cultures. Put plainly: Parkin siRNA in kainate-treated primary cortical cultures, Western blot. The data set is classed as cell-based, mice. To be noted: 25 nM siRNA. How it is done:
as §1
SiRNAs were synthesized by Dharmacon Research, Inc., and duplexes were formed as per the manufacturer's instructions (parkin siRNA sequence: 5′ […] […]dTdT 3′; DAT siRNA sequence: 5′ […]dTdT 3′; SERT siRNA sequence: 5′[…]dTdT 3′). […]
(In general: Immunoblotting shows a protein as a band on a membrane.)

The next data set relates to cerebellar granule cells. In words: Parkin overexpression in kainate-treated cerebellar granule cells. The data set is classed as cell-based, mice. To be noted: 500 μM for 24 h. How it is done:
as §1, with “For immunohistochemistry, cell cultures were washed twice with PBS, and fixed for 20 min with 4% (w/v) paraformaldehyde. Cells were blocked for 1 h, at room temperature, with 3% (v/v) goat serum in PBS, and then incubated overnight, at 4° C., with specific antibodies, as indicated.” left out, “(Scion). […]” for “(Scion).”

Another data set deals with insulin. In words: Aggregation suppression of DTT-reduced insulin B chains. The format is biochemical. The conditions noted are these: insulin 26 μM, 20 mM DTT, 25° C. How it is done: FIG. 22 illustrates that DJ-1 is a redox-dependent molecular chaperone. (A) Aggregation of CS was monitored at 43° C. after addition of either 0.8 μM CS alone (black), or along with 8.0 μM RNase A (purple), 0.5 μM DJ-1 (aqua), 2.0 μM DJ-1 (blue), 4.0 μM DJ-1 (red), or 2.0 μM Hsp27 (green). (B) Aggregation of 0.8 μM CS after 30 min at […] (unfilled bar) is inhibited by 4.0 μM WT DJ-1 (black bar) but not 4.0 μM L166P mutant DJ-1 (gray bar). Data are shown as the mean±SEM and were analyzed by ANOVA with Fisher's post-hoc test. *p<0.05. (C) Aggregation of insulin (26 μM) B chains induced by 20 mM DTT at 25° C. Insulin alone (black) or in the presence of 4.0 μM RNase A (purple), 0.5 μM DJ-1 (aqua), 2.0 μM DJ-1 (blue), 4.0 μM DJ-1 (red), or 2.0 μM Hsp27 (green). […] (gray bar). Further treatment of DTT-reduced DJ-1 with 10 mM H2O2 for 10 min at 4° C. leads to reactivation of CS suppression (hatched bar). Data are shown as the mean±SEM and were analyzed by ANOVA with Fisher's post-hoc test. *p<0.05.
CS aggregation was performed in 40 mM HEPES (pH 7.8), 20 mM potassium hydroxinde, 50 mM potassium chloride, and 10 mM ammonium sulfate, and monitored in a thermostat-controlled fluorescence spectrophotometer with excitation and emission wavelengths at 500 nm and slit widths at 2.5 nm. Insulin aggregation was performed as described (Giasson et al. 2000). […]

In data set [5] the test system is DJ-1 deficient dopamine neurons. In words: 6-OHDA sensitivity of ES-derived dopamine neurons, 3H-dopamine uptake. The format is cell-based, murine. The conditions noted are these: 9 DIV, 72 h exposure. From the text:
(A) The SDIA coculture method. DJ-1 knockout or control heterozygous ES cells are cocultured with mouse stromal cells (MS5) in the absence of serum and leukemia inhibitory factor for 18 DIV. (B) DN production was quantified at 18 DIV by 3H-dopamine uptake assay. DJ-1-deficient ES cell cultures were defective relative to heterozygous control cultures. (C-D) Neuron production was quantified by immunohistochemical analysis as a percent of TuJ1-positive colonies that express TH (C) or GABA (D). Quantification of TH and GABA immunostaining was performed on all colonies in each of three independent wells. Colonies were scored as positive if any immunostained cells were present. *p≦0.05. […] (F) Kinetic analysis of DN differentiation in DJ-1-deficient cultures (clone 32, solid square) and heterozygous controls (open circle) as quantified by 3H-dopamine uptake assay. *p≦0.05. […] DNs were quantified by 3H-dopamine uptake assay. Data represent the means±SEM and were analyzed by ANOVA followed by Fisher's post-hoc test. *p≦0.05. […]
In Vivo Assays. […] Cell viability (as a percent of untreated control) was determined by MTT assay in triplicate (Fezoui et al. 2000). […] Reported values represent specific uptake from which non-specific uptake, determined in the presence of mazindol, was subtracted, and normalized for protein content (BCA kit, Pierce).

In the next data set the target is T2, citrate synthase (CS) (Sus scrofa, UniProt P00889).
T2 construct: purchased Sigma
T2 sequence (P00889 28-464): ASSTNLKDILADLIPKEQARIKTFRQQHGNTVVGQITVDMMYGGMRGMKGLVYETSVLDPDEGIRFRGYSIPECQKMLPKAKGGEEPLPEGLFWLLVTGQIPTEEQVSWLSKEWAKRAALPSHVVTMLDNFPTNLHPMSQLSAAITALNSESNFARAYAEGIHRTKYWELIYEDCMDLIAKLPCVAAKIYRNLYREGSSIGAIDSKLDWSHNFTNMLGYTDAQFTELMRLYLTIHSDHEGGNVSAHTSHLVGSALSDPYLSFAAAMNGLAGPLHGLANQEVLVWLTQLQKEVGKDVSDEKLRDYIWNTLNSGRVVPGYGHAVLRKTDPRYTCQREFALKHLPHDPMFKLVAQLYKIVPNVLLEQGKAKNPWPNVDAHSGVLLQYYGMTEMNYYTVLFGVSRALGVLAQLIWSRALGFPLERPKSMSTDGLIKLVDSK
In words: Suppression of heat-induced aggregation of citrate synthase (chaperone assay). The data set is classed as biochemical. To be noted: 0.8 μM CS, 43° C. How it is done: To test the redox regulation of DJ-1, the inventors assayed chaperone activity in the CS aggregation assay in the presence or absence of the reducing agent DTT. […] (FIG. 22D). […] To further test whether redox regulation might govern DJ-1 chaperone activity, reactivation studies using reduced DJ-1 were performed. DTT-reduced DJ-1 was incubated with H2O2 (10 mM in aggregation buffer for 10 min at 4° C. followed by dialysis against aggregation buffer for 2 h), and subsequently chaperone activity was measured in the CS thermal aggregation assay. […] This was not an indirect effect of residual H2O2 on CS aggregation, as H2O2 treatment of CS increased aggregation (unpublished data).
CS aggregation was performed in 40 mM HEPES (pH 7.8), 20 mM potassium hydroxinde, 50 mM potassium chloride, and 10 mM ammonium sulfate, and monitored in a thermostat-controlled fluorescence spectrophotometer with excitation and emission wavelengths at 500 nm and slit widths at 2.5 nm. Insulin aggregation was performed as described (Giasson et al. 2000). CS, insulin, RNase A, and GST were obtained from Sigma; human Hsp27 was obtained from Stressgen.

Take glutathione S-transferase [GST]: the “formation of Congo red-positive αSyn fibrils” value with αSyn [1] is recorded as “did not”. Besides, the “formation of soluble αSyn protofibrils” value with αSyn [2] is on record as “failed to inhibit”.

Consider “5′ UUCCAAACCGG AUGAGUGGdTdT 3′ (UUCCAAACCGGAUGAGUGGTT; siRNA; sugars from the 5' end r19 d2, backbone not given here) [parkin siRNA, parkin-specific short interfering RNA synthesized by Dharmacon]”, for which the “dopamine neuron sensitivity to MPP+” value in data set [3] (MPP+ 10 μM) is “failed to alter dopamine neuron sensitivity”. For the same molecule, in data set [3] (absence of kainate), the “cyclin E or DAT immunoreactivity” value is given as “failed to alter cyclin E or DAT immunoreactivity”. Besides, the “sensitization of DAT-negative neurons to kainate relative to DAT-positive population” value in data set [3] (cyclin E induction and apoptosis) was “significantly lesser extent”. Also, in data set [3] (kainate), the “apoptosis of dopamine neurons” value is given as “increased apoptosis” and the “cyclin E accumulation in dopamine neurons” value is listed as “increased accumulation of cyclin E”. Also, the DAT immunoreactivity entry in data set [3] (presence of kainate) is “decreased DAT immunoreactivity”. Further, in data set [4], the “cleaved-PARP (apoptosis marker)” value was “accumulation of cleaved poly (ADP-ribose) polymerase”, the “cyclin E accumulation” value is recorded as “increased accumulation of cyclin E” and the parkin protein expression entry is “significantly reduced parkin expression”.

With `C=C(C)[C@H]1CN[C@H](C(=O)O)[C@H]1CC(=O)O` [kainate], in the data set on cerebellar granule cells, the “effect of toxin on cyclin E in granule cell cultures” value is recorded as “led to the accumulation of cyclin E”.

As to “Hsp27: well-described small cytoplasmic chaperone, human Hsp27, from Stressgen; positive control [reference compound]”, the “aggregation suppression of reduced insulin” value with insulin is given as “effectively inhibited”. For the same molecule, the “formation of soluble αSyn protofibrils” value in the data set with αSyn [2] was “failed to inhibit”.

Turning to `NCCc1cc(O)c(O)cc1O` [6-OHDA, 6-hydroxydopamine], the “sensitivity of DJ-1 deficient dopamine neurons to toxin” value in data set [5] is “increased sensitivity”.

B1: RNase A: negative control protein, from Sigma (protein, UniProt P61823 27-150, looked up)
Ribonuclease pancreatic: KETAAAKFERQHMDSSTSAASSSNYCNQMMKSRNLTKDRCKPVNTFVHESLADVQAVCSQKNVACKNGQTNCYQSYSTMSITDCRETGSSKYPNCAYKTTQANKHIIVACEGNPYVPVHFDASV
As to B1, in the data set on insulin, the “aggregation suppression of reduced insulin” value was “neither DJ-1 nor the negative control protein RNase A displayed chaperone activity”. The “suppression of heat-induced aggregation of CS (chaperone activity)” value with citrate synthase (CS) is on record as “failed to demonstrate chaperone activity”.
